We go through one substance from patent US20150359854A1 (HUMAN MATRIX SCIENCES, LLC, priority 2012, published 2015).

“Also recorded” adds a separate entry of the source.

In assay [1] the test system is FoxO1. The assay is described as follows: FoxO1 binding to elastin gene promoter DNA probe (FRE) on DYNABEADS
The format is cell-based, human. The method, then:
Cells were then scraped, and their nuclear extracts were pre-pared using an isolation kit (Active Motif, Inc.). […] The equal molar amounts of both single-stranded DNA oligonucleotides were annealed in Tris-EDTA buffer (10 mmol/L Tris-HCl, 1 mmol/L EDTA (pH 8.0)) to form the double-stranded DNA probe. […] All preparations were subsequently incubated for 2 hours in 200 μL binding buffer (50 mmol/L KCl, 10% glycerol, 20 mmol/L HEPES (pH 7.9), 1 mmol/L MgCl2, 1 mmol/L DTT, 0.1 μg poly(DI-DC) (polydeoxyinosinic-deoxycytidylic), and proteinase inhibitors). After binding, the beads were washed four times in the same binding buffer, without poly(DI-DC). The bound proteins were resolved using 8% SDS-PAGE and probed using Western blotting with the anti-FoxO1 monoclonal antibody.

Assay [2] deals with tropoelastin. Description: Metabolically labeled tropoelastin in cell extracts and conditioned media (secretion). The settings on record: 10 nmol/L insulin, 1 hour. The class given is cell-based, human. The method, then: Cells were plated in 35-mm dishes at a density of 100,000 cells per dish and were grown to confluency. Two microcuries [3H]-valine per milliliter fresh medium supplemented with 2% FBS was added 2 hours before the indicated treatments. At the end of each experiment, the conditioned medium was collected and subjected to immunoprecipitation using anti-tropoelastin antibody. The cell layers were washed with PBS and incubated using radioimmunoprecipitation lysis buffer for 10 minutes on ice. After centrifugation, the supernatants were collected and subjected to immunoprecipitation using anti-tropoelastin antibody. […] Final results (counts per minute) reflecting the total amount of [3H]-valine-labeled insoluble elastin in individual cultures were normalized per their DNA contents (assessed using the Qiagen […] isolation) Tissue Kit) and expressed as percentage of control values. At the end of all treatments, cells from quadruplicate cultures in each experimental group were lysed using NP40 cell lysis buffer (Invitrogen Corp.). Thirty micrograms of protein extracts from each sample was suspended in standard sample buffer, resolved on 4% to 12% gradient SDS-PAGE gels, transferred to nitrocellulose membranes, and subjected to Western blotting using antibodies. At the end of indicated treatments, the cultured cells were lysed as described, and 300 μL aliquots of cell extracts containing […] were incubated at 4° C. for 3 hours with the aliquots of protein G bound DYNABEADS® (Invitrogen Corp.) that were conjugated with either rabbit polyclonal anti-tropoelastin, goat polyclonal anti-Glut10, or rabbit polyclonal anti-S-Gal antibodies. The beads carrying the final immunoprecipitation products were then washed with PBS, resuspended in sample buffer, and boiled for 5 minutes. The released proteins were then resolved on SDS-PAGE gel and subjected to Western blotting using indicated antibodies.

Assay [3] concerns tropoelastin mRNA. Description: RT-PCR assay of tropoelastin mRNA. The settings on record: 10 nmol/L insulin. The class given is cell-based, human. The method, then:
At the end of the treatments, total RNA was extracted from quadruplicate cultures in each experimental group using the RNEASY® (RNA isolation) Mini Kit. One microgram total RNA from each sample was added to one-step RT-PCR (One-Step RT-PCR Kit; Qiagen, Inc.). The reactions were set up in a total volume of 25 μL. The reverse transcription step was performed for elastin and 18S ribosomal RNA reactions at 50° C. for 30 minutes, followed by 15 minutes at 95° C. The elastin PCR reaction using sense primer 5′[…]-3′ (SEQ ID NO 1) and antisense primer 5′[…]3′ (SEQ ID NO 2). The products were analyzed using ethidium bromide staining and densitometry-based image analysis using an optical system (Gel Doc 1000; Bio-Rad Laboratories, Inc., Hercules, Calif.). The amount of tropoelastin mRNA was standardized relative to the amount of 18S ribosomal RNA and expressed as percentage of control values.

Assay [4] deals with Insulin-Like Growth Factor-1 Receptor (IGFR-1R) (Homo sapiens, UniProt P08069). The settings on record: cited from earlier work.
The mark [5] stands for this setting: after 2 hours [3H]-valine and BAPN, serum-free.
[6] abbreviates: after 3 hours [3H]-valine and β-aminopropionitrile, 2% FBS.

Regarding insulin, the “binding of FoxO1 from nuclear extracts to elastin promoter FRE DNA probe” value in assay [1] (AoSMCs treated 30 minutes with 10 nmol/L insulin, or preincubated with LY294002) is given as “could not sequester FoxO1; also recorded: could not bind FoxO1”. The “reversal by insulin of FoxO1 binding to the probe in LY294002-treated cells” value in assay [1] (LY294002 preincubation, consecutive insulin) was “could not reverse this interaction”. In addition, in assay [2] (setting [5]), the “immunodetected soluble tropoelastin in conditioned media vs untreated” value is “significantly more” and the “metabolically labeled soluble tropoelastin in cell extracts vs untreated” value is “significantly less”. In addition, in assay [2] (setting [6]), the “less metabolically labeled tropoelastin in cell layer extracts than untreated controls” value is 66%±6% and the “more metabolically labeled tropoelastin in conditioned media than untreated counterparts” value was 94%±4%. In assay [3], the “time of peak up-regulation of tropoelastin mRNA” value amounted to 8 h. Further, the “tropoelastin mRNA level” value in assay [3] (in 4 hours (time course)) is “significant up-regulation”. Also, the “tropoelastin mRNA level” value in assay [3] (8-hour treatment, serum-free) was “induced significant up-regulation”. The “lower affinity of IGFR-1R for insulin compared to the insulin receptor” value in assay [4] is 1000 ×.
